Measurements published in patent US7202239B2, “Cyclohexylphenyl carboxamides tocolytic oxytocin receptor antagonists” (Wyeth, priority 2001, dated 2007).

Target: T1, human oxytocin receptor (Homo sapiens, UniProt P30559)
T1 sequence (P30559 1-389): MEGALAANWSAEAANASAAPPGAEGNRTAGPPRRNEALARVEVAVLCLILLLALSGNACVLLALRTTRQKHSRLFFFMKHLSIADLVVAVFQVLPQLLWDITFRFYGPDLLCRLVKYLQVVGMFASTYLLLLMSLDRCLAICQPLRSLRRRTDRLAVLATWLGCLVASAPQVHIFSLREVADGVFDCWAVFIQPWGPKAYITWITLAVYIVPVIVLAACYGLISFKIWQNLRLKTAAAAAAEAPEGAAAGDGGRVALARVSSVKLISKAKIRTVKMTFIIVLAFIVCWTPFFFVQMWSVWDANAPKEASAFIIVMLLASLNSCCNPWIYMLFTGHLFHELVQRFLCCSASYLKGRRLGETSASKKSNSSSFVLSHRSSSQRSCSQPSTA
Assay: Oxytocin binding in CHO cell membranes expressing human oxytocin receptors
Details: 100 nM, [3H]oxytocin
Source text: Oxytocin Binding in Chinese Hamster Ovary Cell Membranes Expressing Human Oxytocin Receptors
Chinese Hamster Ovary (CHO) cells stably transfected with the human oxytocin receptor (cf. Tanizawa et al., U.S. Pat. No. 5,466,584 (1995) to Rohto Pharmaceutical Co. Ltd., Osaka, Japan) were obtained from M. Thibonnier, Case Western Reserve University School of Medicine, Cleveland, Ohio. A. Passaging and Amplification of Cells: CHO cells transfected with the human oxytocin receptors obtained from M. Thibonnier (pcDNA3.1 vector) are allowed to grow to confluency (approx. >90%) in T-150 flasks under sterile conditions, in a cell culture medium of F-12 Nutrient Mixture (HAM) with L-glutamine (Gibco Cat. # 11765-054) containing 15 mM HEPES (Gibco Cat. # 15630-080), 1% antibiotic/antimycotic (add 5 mL 100×, Gibco Cat. # 15240-062 per 500 mL F-12), 400 μg/mL of Geneticin (add 4 mL of 50 mg/mL per 500 mL F-12) and 10% Fetal Bovine Serum (Qualified, heat inactivated, Gibco Cat. # 16140-063). The medium is removed by aspiration and the cells are washed with 10 mL of Hank's Balanced Salt solution (Gibco Cat. # 14175-095). The salt solution is removed by aspiration and the cells trypsinized with 5 mL of trypsin-EDTA (0.05% trypsin, 0.53 mM EDTA-4Na, Gibco Cat. # 25300-070) for 1 min The trypsin is removed by aspiration and the cells dislodged by tapping. Cell Culture medium (e.g. 30 mL for 1:30 split) is immediately added and mixed well to inactivate trypsin. 1 mL of detached cells is added to new culture flasks containing fresh Cell Culture medium (e.g. into 25 mL per T-150 flask), and mixed gently. The cells are incubated at 37° C. in 5% CO2. The medium is changed at 3 to 4 days interval (or as appropriate). The cells grow to confluency (approx. >75%–95%) within 7–8 days. All steps are done under sterile conditions. B. Membrane Preparation: The cells are washed twice gently with Hank's Balanced Salt solution (eg, use 10 mL per T-150 flask). The excess solution is removed and the cells bathed for 15–30 min. in an enzyme-free Cell Dissociation Buffer (eg, use 8 mL Hank's Based, Gibco Cat. # 13150-016 per T-150 flask) until cells are loosened. The contents are transferred to centrifuge tubes (50 mL size) kept in ice bath. All subsequent steps are done at 4° C. The tubes are centrifuged at 300×g for 15 min (1380 rpm on SORVAL, Model RT6000D, using rotor for 50 mL tubes). The supernatant is discarded and the cells suspended in homogenizing buffer (10 mM Tris-HCl containing 0.25 M sucrose and 1 mM EDTA, pH 7.4) ensuring that the volume of the buffer is about ten times the volume of the cell pellet. The cells are pooled into a centrifuge tube (50 mL) and homogenized with a Polytron at setting 6 for 10 sec. The homogenate is transferred into a Potter-Elvjehm homogenizer and homogenized with 3 strokes. The homogenate is centrifuged at 1500×g for 10 min at 4° C. (3100 rpm using SORVAL, model RT6000D, using rotor for 50 mL tubes). The pellet is discarded. The supernatant is centrifuged at 100,000×g for 60 min. at 4° C. (Beckman L8-80M ultracentrifuge; spin at 37,500 rpm with rotor type 70 Ti for 50 mL tubes; 38,000 rpm with type 80Ti for 15 mL tubes; or 35,800 rpm with rotor type 45Ti). The supernantant is discarded and the pellet suspended in 3 to 4 mL of Tris buffer (50 mM TRIS-HCl, pH 7.4). The protein content is estimated by the Bradford or Lowry method. The volume of the membrane suspension is adjusted with the membrane buffer (50 mM Tris-HCl containing 0.1% BSA and 0.1 mM PMSF) to give 3.0 mg/mL (or as appropriate) of protein. The membranes are aliquoted and stored at −70° C. C. Radioligand Binding Assay: In wells of a 96-well format microtiter plate, is added 90, 110 or 130 μL (to make up a final volume of 200 μL) of assay buffer containing 50 mM of Tris-HCl (pH 7.4), […], 1 mg % aprotinin, 1 mg % leupeptin, 2 mg % 1,10-phenanthroline, 10 mg % trypsin inhibitor, and 0.1 mM PMSF. […]

OT % inhibition at 100 nM [%] | Compound
91 | O=C(c1ccc(C2CCCCC2)cc1)N1Cc2ccc(C(=O)N3CCC[C@H]3CN3CCCC3)n2Cc2ccccc21 [Example 46, [10-(4-Cyclohexyl-benzoyl)-10,11-dihydro-5H-pyrrolo[2,1-c][1.4]benzodiazepin-3-yl][(2S)-2-(1-pyrrolidinylmethyl)pyrrolidinyl]methanone]
82 | CN(C)[C@@H]1CCN(C(=O)c2ccc3n2Cc2ccccc2N(C(=O)c2ccc(C4CCCCC4)cc2)C3)C1 [Example 47, [10-(4-Cyclohexyl-benzoyl)-10,11-dihydro-5H-pyrrolo[2,1-C][1,4]benzodiazepin-3-yl][(3R)-3-(dimethylamino)pyrrolidinyl]methanone]
78 | O=C(c1ccc2n1Cc1ccccc1N(C(=O)c1ccc(C3CCCCC3)cc1)C2)N1CCN(CCO)CC1 [Example 48, [10-(4-Cyclohexyl-benzoyl)-10,11-dihydro-5H-pyrrolo[2,1-c][1,4]benzodiazepin-3-y][4-(2-hydroxyethyl)-1-piperazinyl]methanone]
4 | O=C(c1ccc2n1Cc1ccccc1N(C(=O)c1ccc(C3CCCCC3)cc1)C2)N1CCN(c2ccncc2)CC1 [Example 54, [10-(4-Cyclohexyl-benzoyl)-10,11-dihydro-5H-pyrrolo[2,1-c][1,4]benzpdiazepin-3-yl][4-(4-pyridinyl)-1-piperazinyl]-methanone]

Same assay, conditions: 100 nM, [3H]oxytocin, read-out: OT % inhibition at 100 nM

inhibition at 0.1 µM [%] | Compound
2 | CC(C)N1CCN(C(=O)c2ccc3n2Cc2ccccc2N(C(=O)c2ccc(C4CCCCC4)cc2)C3)CC1 [Example 44, [10-(4-Cyclohexyl-benzoyl)-10,11-dihydro-5H-pyrrolo[2,1-c][1,4]benzodiazepin-3-yl](4-isopropyl-1-piperazinyl)methanone]
71 | CN(C)CCCN1CCN(C(=O)c2ccc3n2Cc2ccccc2N(C(=O)c2ccc(C4CCCCC4)cc2)C3)CC1 [Example 45, [10-(4-Cyclohexyl-benzoyl)-10,11-dihydro-5H-pyrrolo[2,1-c][1,4]benzodiazepin-3-yl]{4-[3-(dimethylamino)propyl]-1-piperazinyl}methanone]
-2 | O=C(NCCc1ccccn1)c1ccc2n1Cc1ccccc1N(C(=O)c1ccc(C3CCCCC3)cc1)C2 [Example 49, 10-(4-Cyclohexyl-benzoyl)-N-[2-(2-pyridinyl)ethyl]-10,11-dihydro-5H-pyrrolo[2,1-c][1,4]benzodiazepine-3-carboxamide]
-8 | O=C(NCc1ccccn1)c1ccc2n1Cc1ccccc1N(C(=O)c1ccc(C3CCCCC3)cc1)C2 [Example 50, 10-(4-Cyclohexyl-benzoyl)-N-(2-pyridinylmethyl)-10,11-dihydro-5H-pyrrolo[2,1-c][1,4]benzodiazepine-3-carboxamide]
-8 | O=C(NCc1cccnc1)c1ccc2n1Cc1ccccc1N(C(=O)c1ccc(C3CCCCC3)cc1)C2 [Example 51, 10-(4-Cyclohexyl-benzoyl)-N-(3-pyridinylmethyl)-10,11-dihydro-5H-pyrrolo [2,1-c][1,4]benzodiazepine-3-carboxamide]
45 | CN(CCc1ccccn1)C(=O)c1ccc2n1Cc1ccccc1N(C(=O)c1ccc(C3CCCCC3)cc1)C2 [Example 52, 10-(4-Cyclohexyl-benzoyl)-N-methyl-N-[2-(2-pyridinyl)-ethyl]-10,11-dihydro-5H-pyrrolo[2,1-c][1,4]benzodiazepine-3-carboxamide]
25 | O=C(NCc1ccncc1)c1ccc2n1Cc1ccccc1N(C(=O)c1ccc(C3CCCCC3)cc1)C2 [Example 53, 10-(4-Cyclohexyl-benzoyl)-N-(4-pyridinylmethyl)-10,11-dihydro-5H-pyrrolo[2,1-c][1,4]benzodiazepine-3-carboxamide]
91 | CN(CCc1ccncc1)C(=O)c1ccc2n1Cc1ccccc1N(C(=O)c1ccc(C3CCCCC3)cc1)C2 [Example 55, 10-(4-Cyclohexyl-benzoyl)-N-methyl-N-[2(4-pyridinyl)ethyl]-10,11-dihydro-5H-pyrrolo[2,1-c][1,4]benzodiazepine-3-carboxamide]
61 | O=C(c1ccc(C2CCCCC2)cc1)N1Cc2ccc(C(=O)n3ccnc3)n2Cc2ccccc21 [Example 56, 1H-Imidazol-1-yl-[10-(4-cyclohexyl-benzoyl)-10,11-dihydro-5H-pyrrolo[2,1-c][1,4]benzodiazepin-3-yl]-methanone]
-4 | CN(Cc1cccnc1)C(=O)c1ccc2n1Cc1ccccc1N(C(=O)c1ccc(C3CCCCC3)cc1)C2 [Example 57, 10-(4-Cyclohexyl-benzoyl)-N-methyl-N-(3-pyridinylmethyl)-10,11-dihydro-5H-pyrrolo[2,1-c][1,4]benzodiazepine-3-carboxamide]
